{"source": "patent US20260021167A1", "about": "“COMPOSITIONS AND METHODS FOR TREATING OR PREVENTING NEURODEGENERATIVE DISEASES” (Delaware State University, priority 2022, published 2026)", "assay_type_in_all_cases": "in vivo, mouse", "key": {"[1]": {"system": "phosphorylated α-synuclein", "experiment": "Western blot of phosphorylated α-synuclein in brain tissue extracts of PFF-injected mice", "conditions": "both doses, vs PFF only", "description": "(§1) A mouse model of Parkinson's disease is C57BL/6 male or female mice (50% each) injected with 5 μg of mouse PFF at 12 months old, followed by a treatment below for 6-7 weeks: • 1) without PFF injection, followed by vehicle (control, n=7); • 2) PFF injection, followed by vehicle (PFF only: control, n=8); • 3) PFF injection, followed by daily 10 mg/kg Momordin gavage (n=7-8); • 4) PFF injection, followed by daily 50 mg/kg Momordin gavage (n=7-8).\nImmunoblot Analyses. A total of three protein extractions were performed. In the first extraction, a gentle RIPA buffer containing the low concentration of detergent (25 mM Tris-HCL, 150 mM NaCl, 1% NP-40, 1% sodium deoxycholate and 0.1% SDS) was added with phosphatase inhibitors (100 μL for 10 mL) and 5 mM EDTA. The mixture was sonicated and centrifuged at 14,000 rpm for 10 min. The supernatant was collected for measuring the levels of phosphorylated α-syn, SENP-1 or SUMO-1 conjugated proteins for different groups. […] The primary antibodies pertaining to each protein analyzed were diluted at 1:1000 (p-Ser-129-α-synuclein, Cell signaling; SENP-1, SAB4501345, EMD) and incubated at 4° C. overnight. […] ImageJ was used to analyze specific bands on each blot and measured against the loading control (β-actin) for normalizing each band intensity."}, "PFF-injected old mice": {"system": "PFF-injected old mice", "experiment": "Rotarod in PFF-injected mice", "conditions": "10 and/or 50 mg/kg oral, vs PFF only", "description": "as §1\nRotarod. Rotarod is a behavioral test used to measure motor functionality. For three consecutive days, all the mice were habituated on the rotating rod comprising a horizontal plane rotating at a speed of 4 rotations per minute (rpm), increasing by 2 rpm every minute for 10 min or until they fell off the rod at 20 rpm. The data were collected over three consecutive days where the animals were placed on the rod at 4 rpm, and the rod increased the speed by 1 rpm every 16 sec for 10 min or until the mouse fell off. A longer latency to fall indicates an improved motor functionality."}, "TH+ dopaminergic neurons": {"system": "TH+ dopaminergic neurons", "experiment": "Immunohistochemistry of TH staining in striatum and SNc of PFF-injected mice", "description": "as §1\nImmunohistochemistry. The serial coronal sections of the right hemisphere were collected throughout the striatum and substantia nigra. Each section with a thickness of 14 μm was mounted as a set of 5 onto positively charged slides (Midwest Sci, Valley Park, MO). The slides were kept at −80° C. until immunohistochemistry was performed. The sections were thawed at room temperature for 30 min, followed by a rehydration step in 0.1M PB for 10 min. The permeabilization step was performed using pre-chilled 100% acetone for 10 min. The excess acetone was dried, and permeabilization solution (40 µL Triton-X in 2% BSA) was added to the slides and kept aside for an additional 10 min. A blocking reagent containing 5% BSA in PB-T was given in the blocking step after drying the slides of excess permeabilization solution. The primary antibody was exposed under the coverslips to prevent the dehydration of the primary antibody. After the primary antibody (EMD Millipore-AB152) treatment at 4° C. overnight, the tissues were washed in PBS-T for 5 min three times. Then, slides were treated with a secondary antibody of Alexa-647-conjugated goat anti-rabbit (1:1000; Molecular Probes, Thermo Fisher Scientific) and incubated at room temperature for 2 h. The secondary antibody was washed in PBS-T for 3×5 min. Coverslips were mounted on slides using ProLong Diamond antifade mounting medium (Thermofisher, MA, USA). All images were captured using EVOS FL Cell Imaging Systems (Invitrogen), and every fifth section was analyzed for measuring the intensity of TH staining in the striatum and counting TH+ neurons in the SNc in a blinded manner. The same procedure was used for assessing the levels of phosphorylated Ser-129-α-synuclein (1:500, Cell signaling, cat #23706S) and protein aggregation using thioflavin-T (20 μM, Acros). Pictures for specific regions such as the striatum and ventral midbrain (vMB) were taken using confocal microscopy and stitched together to obtain a single image for representation purposes. The intensities were measured using ImageJ by a blinded rater.\nImmunohistochemistry. The serial coronal sections of the right hemisphere were collected throughout the striatum and substantia nigra. Each section with a thickness of 14 μm was mounted as a set of 5 onto positively charged slides (Midwest Sci, Valley Park, MO). […]"}}, "data": [{"smiles": "CC1(C)CC[C@]2(C(=O)O)CC[C@]3(C)C(=CC[C@@H]4[C@@]5(C)CC[C@H](O[C@@H]6O[C@H](C(=O)O)[C@@H](O)[C@H](O[C@@H]7OC[C@@H](O)[C@H](O)[C@H]7O)[C@H]6O)C(C)(C)[C@@H]5CC[C@]43C)[C@@H]2C1", "note": "[Momordin lc]", "values": [{"measurement": "phosphorylated α-synuclein in the MB (Western blot, tissue extracts)", "setting": "[1]; midbrain", "result": "reversed"}, {"measurement": "phosphorylated α-synuclein in the STR (Western blot, tissue extracts)", "setting": "[1]; striatum", "result": "reversed"}, {"measurement": "mobility on rotarod", "setting": "PFF-injected old mice", "result": "enhances the mobility on rotarod"}, {"measurement": "recovery from damages in the striatum and Substantia Nigra compacta (SNc)", "setting": "TH+ dopaminergic neurons; 50 mg/kg oral for 6-7 weeks, PFF-injected mice", "result": "effective"}, {"measurement": "dopaminergic neuronal death / neuronal cell loss in mouse brains", "setting": "TH+ dopaminergic neurons; PFF injection", "result": "reverse dopaminergic neuronal death"}, {"measurement": "number of TH+ dopaminergic neurons in the SNc", "setting": "TH+ dopaminergic neurons; both doses (10 and 50 mg/kg) oral for 6-7 weeks, PFF-injected mice, vs PFF only", "result": "significantly recovered"}, {"measurement": "intensity of TH+ label in the striatum", "setting": "TH+ dopaminergic neurons; oral treatment for 6-7 weeks, PFF-injected mice, vs PFF only", "result": "improves the intensity of TH+ label"}]}]}
